In series [1] the target is T1, KV10.1 (Homo sapiens, UniProt O95259).
T1 construct: expressed in transfected cells; host or cells: Xenopus laevis oocytes (cRNA injection)
T1 sequence (O95259 1-989): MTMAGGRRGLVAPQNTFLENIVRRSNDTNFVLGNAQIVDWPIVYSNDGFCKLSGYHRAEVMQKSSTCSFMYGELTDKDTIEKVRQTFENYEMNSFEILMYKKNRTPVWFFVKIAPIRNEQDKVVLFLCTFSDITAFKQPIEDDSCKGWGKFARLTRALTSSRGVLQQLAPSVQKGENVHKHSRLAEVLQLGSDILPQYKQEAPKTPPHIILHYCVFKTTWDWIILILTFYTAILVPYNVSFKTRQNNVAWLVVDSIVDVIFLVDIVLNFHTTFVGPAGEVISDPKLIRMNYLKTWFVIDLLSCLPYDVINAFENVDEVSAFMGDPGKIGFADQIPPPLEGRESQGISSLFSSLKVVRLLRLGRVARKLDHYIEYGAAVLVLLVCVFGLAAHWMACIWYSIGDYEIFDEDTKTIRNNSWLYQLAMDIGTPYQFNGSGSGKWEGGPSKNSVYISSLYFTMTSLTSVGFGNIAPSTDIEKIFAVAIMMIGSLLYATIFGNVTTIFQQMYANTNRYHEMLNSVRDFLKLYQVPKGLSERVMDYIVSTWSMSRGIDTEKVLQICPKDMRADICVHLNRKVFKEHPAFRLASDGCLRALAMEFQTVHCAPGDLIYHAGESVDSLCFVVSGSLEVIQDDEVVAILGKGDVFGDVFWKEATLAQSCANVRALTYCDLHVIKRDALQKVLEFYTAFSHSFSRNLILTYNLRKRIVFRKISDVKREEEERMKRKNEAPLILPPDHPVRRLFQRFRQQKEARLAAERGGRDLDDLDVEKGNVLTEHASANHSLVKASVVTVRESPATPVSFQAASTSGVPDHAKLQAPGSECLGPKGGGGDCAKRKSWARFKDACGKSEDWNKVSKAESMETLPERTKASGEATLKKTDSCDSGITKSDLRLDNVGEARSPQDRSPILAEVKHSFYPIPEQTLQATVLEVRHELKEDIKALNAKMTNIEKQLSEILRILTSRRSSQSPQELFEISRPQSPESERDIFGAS
Kind of series: Two-electrode voltage-clamp on Xenopus laevis oocytes expressing KV10.1. It counts as cell-based. Conditions: voltage-clamped. From the text: (§1) Stage V–VI oocytes were isolated by partial ovariectomy from Xenopus laevis frogs (African clawed frog). Mature female frogs were purchased from CRB Xénopes (Rennes, France) and were housed in the Aquatic Facility (KU Leuven) in compliance with the regulations of the European Union (EU) concerning the welfare of laboratory animals as declared in Directive 2010/63/EU. The use of Xenopus laevis was approved by the Animal Ethics Committee of the KU Leuven (Project nr. P186/2019). After anesthetising the frogs by a 15 min submersion in 0.1% tricaine methanesulphonate (pH 7.0), the oocytes were collected. The isolated oocytes were then washed with a 1.5 mg/mL collagenase solution for 2 h to remove the follicle layer.
(§2) Ion channels (KV10.1 and hERG) were expressed in Xenopus laevis oocytes, by linearisation of the plasmids and subsequent in vitro transcription using a commercial T7 or SP6 mMESSAGE mMACHINE transcription kit (Ambion, Carlsbad, CA, USA). Defolliculated Xenopus oocytes were then injected with 20–50 nL of the cRNA at a concentration of 1 ng/nL using a micro-injector (Drummond Scientific1, Broomall, PA, USA). The oocytes were incubated in a solution containing (in mM): NaCl, 96; KCl, 2; CaCl2, 1.8; MgCl2, 2 and HEPES, 5 (pH 7.4), supplemented with 50 mg/L gentamycin sulphate and […]. After ex vivo translation, the ion channels are correctly inserted in the cell membrane of the oocytes.
(§3) Two-electrode voltage-clamp recordings were performed at room temperature (18–22 °C) using a Geneclamp 500 amplifier (Molecular Devices, San Jose, CA, USA) controlled by a pClamp data acquisition system (Axon Instruments1, Union City, CA, USA) and using an integrated digital TEVC amplifier controlled by HiClamp, an automated Voltage-Clamp Screening System (Multi Channel Systems MCS GmbH, Reutlingen, Germany). Whole-cell currents from oocytes were recorded 1–7 days after injection. The bath solution composition was ND96 (in mM): NaCl, 96; KCl, 2; CaCl2, 1.8; MgCl2, 2 and HEPES, 5 (pH 7.5). Voltage and current electrodes were filled with a 3 M solution of KCl in H2O. Resistances of both electrodes were kept between 0.5 and 1.5 MΩ. The elicited Kv10.1 and hERG currents were filtered at 0.5 kHz and sampled at 2 kHz using a four-pole low-pass Bessel filter. Leak subtraction was performed using a p/4 protocol. Starting from a holding potential of −90 mV, currents for Kv10.1 were evoked by 1 s depolarizing pulses to 0 mV and currents for hERG were evoked by 2.5 s depolarizing prepulses to +40 mV, followed by hyperpolarizing pulses to −120 mV for 2.5 s. The concentration dependency of all compounds was assessed by measuring the current inhibition in the presence of increasing compound concentrations. To this end, a stock solution of the compounds was prepared in 100% DMSO for the sake of solubility. From this stock solution, adequate dilutions with a maximum of 0.5% DMSO were made for testing. The data of the concentration–response curves were fitted with the Hill equation: y = 100/{1 + (IC50/[compound])^h}, where y is the amplitude of the compound- induced effect, IC50 is the compound concentration at half-maximal efficacy, (compound) is the compound concentration, and h is the Hill coefficient.
(§4) All electrophysiological data are presented as means ± SEM of n ≥ 3 independent experiments unless otherwise indicated. Oocyte data were analysed using pClamp Clampfit 10.4 (Molecular Devices, Downingtown, PA, USA) and OriginPro 9 (Originlab, Northampton, MA, USA) or GraphPad Prism 8 software (GraphPad Software, Inc., San Diego, CA, USA). Patch-clamp data analysis was performed using FitMaster (HEKA Electronics), IgorPro (Wavemetrics, Inc., Lake Oswego, OR, USA) and GraphPad Prism 9 (GraphPad Software, Inc., San Diego, CA, USA). The Dunnett test and one-way ANOVA were performed to calculate the significance of the induced inhibition compared to the control (p < 0.05).
A general note: In two-electrode clamp one electrode senses voltage and the other passes current.

Series [2] concerns the target hERG (Homo sapiens, UniProt Q12809). Kind of series: Two-electrode voltage-clamp on Xenopus laevis oocytes expressing hERG. It is filed as cell-based. Also on record: expressed in transfected cells; host or cells: Xenopus laevis oocytes (cRNA injection). Conditions: voltage-clamped; for inhibition at 10 µM: human, Xenopus laevis oocytes expressing hERG, pH 7.5, 10 μM.
Source text: as §1, §2, §3, §4

hERG, sequence (Q12809 whole entry): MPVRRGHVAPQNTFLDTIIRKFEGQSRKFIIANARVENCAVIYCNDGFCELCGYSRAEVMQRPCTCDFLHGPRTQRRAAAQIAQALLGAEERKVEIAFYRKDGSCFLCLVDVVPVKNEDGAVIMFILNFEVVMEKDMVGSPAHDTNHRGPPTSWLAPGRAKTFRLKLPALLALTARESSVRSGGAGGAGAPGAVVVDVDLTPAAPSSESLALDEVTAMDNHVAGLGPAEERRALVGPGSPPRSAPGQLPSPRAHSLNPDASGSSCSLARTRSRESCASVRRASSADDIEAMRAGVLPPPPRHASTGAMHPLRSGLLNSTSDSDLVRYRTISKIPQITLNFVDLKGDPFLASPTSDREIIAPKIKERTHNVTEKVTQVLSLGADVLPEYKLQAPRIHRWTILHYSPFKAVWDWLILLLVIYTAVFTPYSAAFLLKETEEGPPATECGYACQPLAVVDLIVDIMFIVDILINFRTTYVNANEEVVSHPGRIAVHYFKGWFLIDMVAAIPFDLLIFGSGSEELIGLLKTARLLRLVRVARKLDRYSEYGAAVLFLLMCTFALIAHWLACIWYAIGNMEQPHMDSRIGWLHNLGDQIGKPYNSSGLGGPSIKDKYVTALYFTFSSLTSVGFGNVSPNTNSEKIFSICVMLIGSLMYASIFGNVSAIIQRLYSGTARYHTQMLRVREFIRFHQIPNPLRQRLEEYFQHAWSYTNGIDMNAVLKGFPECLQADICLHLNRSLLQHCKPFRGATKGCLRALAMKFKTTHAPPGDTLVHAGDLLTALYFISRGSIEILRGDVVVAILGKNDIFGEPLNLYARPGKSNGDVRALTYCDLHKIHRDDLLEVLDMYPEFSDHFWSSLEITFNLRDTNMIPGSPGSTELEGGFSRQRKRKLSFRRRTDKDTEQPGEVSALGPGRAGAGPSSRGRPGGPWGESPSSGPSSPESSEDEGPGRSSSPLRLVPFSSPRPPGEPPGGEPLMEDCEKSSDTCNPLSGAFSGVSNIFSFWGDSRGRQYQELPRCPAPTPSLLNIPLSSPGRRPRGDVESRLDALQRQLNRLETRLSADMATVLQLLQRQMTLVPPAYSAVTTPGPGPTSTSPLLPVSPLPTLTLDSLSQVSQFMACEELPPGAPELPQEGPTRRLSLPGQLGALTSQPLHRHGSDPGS

The inhibition is the relative decrease from the control value, in per cent. With `COC(=O)c1ccccc1Oc1ccc(OCC(O)CN2CCOCC2)cc1` (stereo not shown) [Compound 5a, Methyl 2-(4-(2-hydroxy-3-morpholinopropoxy)phenoxy)benzoate], the figures for the inhibition at 10 µM in series [1] and in series [2] were -4.54% and 15%, respectively.
With `O=[N+]([O-])c1cc(C(F)(F)F)ccc1Oc1ccc(OCC(O)CN2CCOCC2)cc1` (stereo not shown) [Compound 5b, 1-Morpholino-3-(4-(2-nitro-4-(trifluoromethyl)phenoxy)phenoxy)propan-2-ol], the inhibition at 10 µM in series [1] came to 24.9%; in series [2], 11.5%.
Regarding `O=C(Nc1ccc(OCC(O)CN2CCOCC2)cc1)c1ccc(C(F)(F)F)cc1[N+](=O)[O-]` (stereo not shown) [Compound 5c, N-(4-(2-Hydroxy-3-morpholinopropoxy)phenyl)-2-nitro-4-(trifluoromethyl)benzamide], the inhibition at 10 µM in series [1] is -0.66%; in series [2], 21.5%.
The corresponding values for `COC(=O)c1ccccc1Nc1ccc(OCC(O)CN2CCOCC2)cc1` (stereo not shown) [Compound 5d, Methyl 2-((4-(2-hydroxy-3-morpholinopropoxy)phenyl)amino)benzoate] are -2.11% and 20.4%.
For `O=[N+]([O-])c1ccc(Nc2ccc(OCC(O)CN3CCOCC3)cc2)c([N+](=O)[O-])c1` (stereo not shown) [Compound 5f, 1-(4-((2,4-Dinitrophenyl)amino)phenoxy)-3-morpholinopropan-2-ol], the inhibition at 10 µM in series [1] worked out at 41.3%; in series [2], 65.8%.
In the case of `CN(C)CC(O)COc1ccc(Oc2ccc(C(F)(F)F)cc2[N+](=O)[O-])cc1` (stereo not shown) [Compound 6a, 1-(Dimethylamino)-3-(4-(2-nitro-4-(trifluoromethyl)phenoxy)phenoxy)propan-2-ol], the inhibition at 10 µM in series [1] came out at 23.7%; in series [2], 69.1%.
The corresponding values for `CN(C)CC(O)COc1ccc(NC(=O)c2ccc(C(F)(F)F)cc2[N+](=O)[O-])cc1` (stereo not shown) [Compound 6b, N-(4-(3-(Dimethylamino)-2-hydroxypropoxy)phenyl)-2-nitro-4-(trifluoromethyl)benzamide] are -0.41% and 9.83%.
The corresponding values for `COC(=O)c1cc(C(F)(F)F)ccc1Nc1ccc(OCC(O)CN(C)C)cc1` (stereo not shown) [Compound 6c, Methyl 2-((4-(3-(dimethylamino)-2-hydroxypropoxy)phenyl)amino)-5-(trifluoromethyl)benzoate] are 9.91% and 63.7%.
Regarding `CN(C)CC(O)COc1ccc(Nc2ccc([N+](=O)[O-])cc2[N+](=O)[O-])cc1` (stereo not shown) [Compound 6d, 1-(Dimethylamino)-3-(4-((2,4-dinitrophenyl)amino)phenoxy)propan-2-ol], the inhibition at 10 µM came to 44.1% in series [1] and 74.3% in series [2].
The corresponding values for `O=C(O)c1ccccc1Nc1ccc(OCC(O)CN2CCOCC2)cc1` (stereo not shown) [Compound 10a, 2-((4-(2-Hydroxy-3-morpholinopropoxy)phenyl)amino)benzoic acid] are 13% and 3.42%.
The corresponding values for `CN(C)CC(O)COc1ccc(Nc2ccc(C(F)(F)F)cc2C(=O)O)cc1` (stereo not shown) [Compound 10b, 2-((4-(3-(Dimethylamino)-2-hydroxypropoxy)phenyl)amino)-5-(trifluoromethyl)benzoic acid] are 15.7% and 14.7%.
Taken in the same sequence, the figures for `O=[N+]([O-])c1cc(C(F)(F)F)ccc1Nc1ccc(OCCN2CCOCC2)cc1` [Compound 13, N-(4-(2-Morpholinoethoxy)phenyl)-2-nitro-4-(trifluoromethyl)aniline] were 22.6% and 34.7%.
Take `O=[N+]([O-])c1cc(C(F)(F)F)ccc1Nc1ccc(OCc2ccccc2)cc1` [Compound 14, N-(4-(Benzyloxy)phenyl)-2-nitro-4-(trifluoromethyl)aniline]: the inhibition at 10 µM in series [1] is -1.18%; in series [2], 4.23%.
The corresponding values for `CNCC(O)COc1ccc(Nc2ccc(C(F)(F)F)cc2[N+](=O)[O-])cc1` (stereo not shown) [Compound 15, 1-(Methylamino)-3-(4-((2-nitro-4-(trifluoromethyl)phenyl)amino)phenoxy)propan-2-ol] are 39.9% and 58.6%.
In the case of `O=C(Cc1ccc(Cl)c(Cl)c1)NC1CCN(CC(O)COc2ccc(Nc3ccc(C(F)(F)F)cc3[N+](=O)[O-])cc2)CC1` (stereo not shown) [Compound 16d, 2-(3,4-Dichlorophenyl)-N-(1-(2-hydroxy-3-(4-((2-nitro-4-(trifluoromethyl)phenyl)amino)phenoxy)propyl)piperidin-4-yl)acetamide], in series [1], the inhibition at 10 µM was 0%.
`CCN(CC)CCOc1c(Br)cc(Nc2ccc(C(F)(F)F)cc2[N+](=O)[O-])cc1Br` [Compound 17b, 3,5-Dibromo-4-(2-(diethylamino)ethoxy)-N-(2-nitro-4-(trifluoromethyl)phenyl)aniline]: the inhibition at 10 µM amounted to 19.5% in series [1] and 60.1% in series [2].
`CCN(CC)CCOc1c(Cl)cc(Nc2ccc(C(F)(F)F)cc2[N+](=O)[O-])cc1Cl` [Compound 17c, 3,5-Dichloro-4-(2-(diethylamino)ethoxy)-N-(2-nitro-4-(trifluoromethyl)phenyl)aniline]: the inhibition at 10 µM was 9.21% in series [1] and 54.7% in series [2].
The IC50 is the concentration that gives 50% inhibition. Read a high IC50 as weaker potency. Regarding `CN(C)CCOc1c(Cl)cc(Nc2ccc(C(F)(F)F)cc2[N+](=O)[O-])cc1Cl` [Compound 18c, 3,5-Dichloro-4-(2-(dimethylamino)ethoxy)-N-(2-nitro-4-(trifluoromethyl)phenyl)aniline], in series [1], the inhibition at 10 µM stood at 58.2% and half-maximal inhibition (IC50) was put at 19 ± 2.85 µM. In addition, in series [2], the inhibition at 10 µM was 76.8% and the IC50 came out at 0.66 ± 0.27 µM.

The values are drawn from publication PMC9501377, “New Diarylamine KV10.1 Inhibitors and Their Anticancer Potential” (Pharmaceutics, 2022).
